The target in the first experiment is human CB2R (Homo sapiens, UniProt P34972). Put plainly: CB2R mediated modulation of cAMP synthesis.
Chain of human CB2R (P34972 whole entry): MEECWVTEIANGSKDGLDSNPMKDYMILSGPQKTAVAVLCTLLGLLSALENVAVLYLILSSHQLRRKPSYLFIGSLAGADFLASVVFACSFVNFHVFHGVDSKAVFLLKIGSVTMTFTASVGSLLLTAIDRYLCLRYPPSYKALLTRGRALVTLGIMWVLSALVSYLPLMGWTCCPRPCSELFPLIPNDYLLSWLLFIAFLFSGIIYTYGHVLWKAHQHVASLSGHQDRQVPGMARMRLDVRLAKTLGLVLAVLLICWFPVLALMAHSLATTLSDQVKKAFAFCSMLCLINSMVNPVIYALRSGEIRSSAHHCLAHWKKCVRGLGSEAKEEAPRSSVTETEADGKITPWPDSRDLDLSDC
Conditions: not given
It counts as cell-based. As for the experimental part:
B. CB2R Mediated Modulation of cAMP Synthesis:
Compounds of the invention were evaluated for their CB2 agonist or inverse agonistic activity in accordance with the following experimental method.
CHO cells expressing human CB2R (Euroscreen) were plated at a density of 5000 cells per well in 384 well plates and incubated overnight at 37° C. After removing the media, the cells were treated with test compounds diluted in stimulation buffer containing 1 mM IBMX, 0.25% BSA and 10 uM Forskolin. The assay was incubated for 30 minutes at 37° C. Cells were lysed and the cAMP concentration was measured using DiscoverX-XS cAMP kit, following the manufacturer's protocol. In this setting, agonists will decrease forskolin induced production of cAMP while inverse agonists will further increase forskolin induced production of cAMP. EC50 of agonists were calculated as follows. The maximal amount of cAMP produced by forskolin compared to the level of cAMP inhibited by 1 uM CP55940 is defined as 100%. […] Data was analyzed using a four-parameter logistic model. (Model 205 of XLfit 4.0).
With `CC(C)(C)c1cc(NC(=O)[C@@H]2CCC(=O)N2c2ccc(F)cc2)no1` [(S)-1-(4-fluoro-phenyl)-5-oxo-pyrrolidine-2-carboxylic acid (5-tert-butyl-isoxazol-3-yl)-amide], it took 35.7 nM to reach a half-maximal effect (EC50). Still for that read-out and setting: the result for `CC(C)(C)c1cc(NC(=O)[C@@H]2CCCN2CC2CCCCO2)on1` (stereo partly drawn) [1-(Tetrahydro-pyran-2-ylmethyl)-pyrrolidine-2-carboxylic acid (3-tert-butyl-isoxazol-5-yl)-amide] reads 0.172 nM. For the compound `CC(C)(C)c1cccc(NC(=O)[C@@H]2CCC(=O)N2c2ccc(Cl)cc2)c1` [(S)-1-(4-Chloro-phenyl)-5-oxo-pyrrolidine-2-carboxylic acid (3-tert-butyl-phenyl)-amide], the response was half-maximal at 58.7 nM (EC50). Regarding `CC(C)(C)c1nnc(NC(=O)[C@@H]2CCCN2C2CCCC2(C)C)s1` (stereo partly drawn) [1-(2,2-Dimethyl-cyclopentyl)-pyrrolidine-2-carboxylic acid (5-tert-butyl-1,3,4-thiadiazol-2-yl)-amide], the EC50 came out at 445 nM.

Take `CC(C)(C)c1nc(NC(=O)[C@@H]2C[C@H](O)CN2CC2CCOCC2)sc1C#N` [(2S,4S)-4-Hydroxy-1-(tetrahydro-pyran-4-ylmethyl)-pyrrolidine-2-carboxylic acid (4-tert-butyl-5-cyano-thiazol-2-yl)-amide]: the EC50 turned out to be 380 nM. The compound `CC(C)(C)c1cc(NC(=O)[C@@H]2CCCN2C(=O)N2CCS(=O)(=O)CC2)on1` came in with an EC50 of 97.1 nM. Consider `CC(C)(C)C1CCC(NC(=O)[C@@H]2CCC(=O)N2c2ccc(Cl)cc2)CC1` (stereo partly drawn) [(S)-1-(4-Chloro-phenyl)-5-oxo-pyrrolidine-2-carboxylic acid (4-tert-butyl-cyclohexyl)-amide], for which the EC50 was found to be 159 nM. Same read-out and setting: in the case of `CC(C)(C)c1cc(NC(=O)[C@]2(C)CCCN2c2ccc(C(F)(F)F)cc2)no1` [(S)-2-Methyl-1-(4-trifluoromethyl-phenyl)-pyrrolidine-2-carboxylic acid (5-tert-butyl-isoxazol-3-yl)-amide] it was 0.199 nM. Still for that read-out and setting: in the case of `CC(C)(C)c1cc(NC(=O)[C@@H]2CCC(=O)N2c2ccc(C(F)(F)F)cc2)no1` [(S)-5-Oxo-1-(4-trifluoromethyl-phenyl)-pyrrolidine-2-carboxylic acid (5-tert-butyl-isoxazol-3-yl)-amide] it was 5.76 nM; in that of `CCC(C)CN1CCC[C@H]1C(=O)Nc1cc(C(C)(C)C)no1` (stereo partly drawn) [(S)-1-(2-Methyl-butyl)-pyrrolidine-2-carboxylic acid (3-tert-butyl-isoxazol-5-yl)-amide], 0.116 nM; in that of `C=Cc1ccc(N2C(=O)CC[C@H]2C(=O)Nc2cc(C(C)(C)C)on2)cc1` [(S)-5-Oxo-1-(4-vinyl-phenyl)-pyrrolidine-2-carboxylic acid (5-tert-butyl-isoxazol-3-yl)-amide], 70 nM. Same read-out and setting: in the case of `CC(C)c1cc(NC(=O)[C@@H]2CCC(=O)N2c2ccc(C(F)(F)F)cc2)on1` [(S)-5-Oxo-1-(4-trifluoromethyl-phenyl)-pyrrolidine-2-carboxylic acid (3-isopropyl-isoxazol-5-yl)-amide] it was 41.8 nM.

For the compound `CC(C)(C)c1nnc(NC(=O)[C@@H]2CCCN2c2ccc(Cl)cc2)s1` [(S)-1-(4-Chloro-phenyl)-pyrrolidine-2-carboxylic acid (5-tert-butyl-1,3,4-thiadiazol-2-yl)-amide], the EC50 turned out to be 0.098 nM.

Compound `CC(C)(C)c1cc(NC(=O)[C@@H]2CCC(=O)N2c2ncc(Cl)cn2)on1` [(S)-1-(5-Chloro-pyrimidin-2-yl)-5-oxo-pyrrolidine-2-carboxylic acid (3-tert-butyl-isoxazol-5-yl)-amide] displayed an EC50 of 455 nM. Still for that read-out and setting: in the case of `Cc1ccc(N2C(=O)CC[C@H]2C(=O)Nc2cc(C(C)(C)C)no2)cc1` [(S)-5-Oxo-1-p-tolyl-pyrrolidine-2-carboxylic acid (3-tert-butyl-isoxazol-5-yl)-amide] it was 163 nM; in that of `CC(C)(C)c1cc(NC(=O)[C@@H]2CCC(=O)N2c2ccc(Cl)c(Cl)c2)on1` [(S)-1-(3,4-Dichloro-phenyl)-5-oxo-pyrrolidine-2-carboxylic acid (3-tert-butyl-isoxazol-5-yl)-amide], 16.1 nM. Take `CC(C)(C)c1cc(NC(=O)[C@@H]2CCC(=O)N2c2ccc(F)c(F)c2)on1` [(S)-1-(3,4-Difluoro-phenyl)-5-oxo-pyrrolidine-2-carboxylic acid (3-tert-butyl-isoxazol-5-yl)-amide]: the EC50 stood at 16 nM.

`CC1CCCCC1N1CCC[C@H]1C(=O)Nc1nnc(C(C)(C)C)s1` (stereo partly drawn) [1-(2-Methyl-cyclohexyl)-pyrrolidine-2-carboxylic acid (5-tert-butyl-1,3,4-thiadiazol-2-yl)-amide] yielded an EC50 of 255 nM. The compound `CC(C)(C)c1cc(NC(=O)[C@@H]2C[C@@H](O)CN2c2ccc(C(F)(F)F)cn2)on1` [(2S,4R)-4-Hydroxy-1-(5-trifluoromethyl-pyridin-2-yl)-pyrrolidine-2-carboxylic acid (3-tert-butyl-isoxazol-5-yl)-amide] showed an EC50 of 0.433 nM. In turn, `CC(C)(C)c1cc(NC(=O)[C@@H]2C[C@@H](O)CN2c2ncc(C(F)(F)F)cc2Cl)on1` [(2S,4R)-1-(3-Chloro-5-trifluoromethyl-pyridin-2-yl)-4-hydroxy-pyrrolidine-2-carboxylic acid (3-tert-butyl-isoxazol-5-yl)-amide] displayed an EC50 of 3.25 nM.

`CC(C)(C)c1csc(NC(=O)[C@@H]2CCCN2c2ncc(C(F)(F)F)cc2Cl)n1` [(S)-1-(3-Chloro-5-trifluoromethyl-pyridin-2-yl)-pyrrolidine-2-carboxylic acid (4-tert-butyl-thiazol-2-yl)-amide] gave an EC50 of 1.95 nM. `O=C(NCCN1CCN(c2nccc(C(F)(F)F)n2)CC1)[C@@H]1CCCN1c1ccc(Cl)cc1` came in with an EC50 of 381 nM.

`CC1CC(NC(=O)[C@@H]2CCC(=O)N2c2ccc(Cl)cc2)CC(C)(C)C1` (stereo partly drawn) [(S)-1-(4-Chloro-phenyl)-5-oxo-pyrrolidine-2-carboxylic acid (3,3,5-trimethyl-cyclohexyl)-amide] came in with an EC50 of 212 nM.

`CC(C)(C)c1nnc(NC(=O)[C@@H]2CCCN2CC2CCOCC2)s1` [(S)-1-(Tetrahydro-pyran-4-ylmethyl)-pyrrolidine-2-carboxylic acid (5-tert-butyl-1,3,4-thiadiazol-2-yl)-amide] showed an EC50 of 16.5 nM. Still for that read-out and setting: in the case of `O=C(Nc1nc(-c2ccc(F)cc2)cs1)[C@@H]1CCCN1c1ccc(Cl)cc1` [(S)-1-(4-Chloro-phenyl)-pyrrolidine-2-carboxylic acid [4-(4-fluoro-phenyl)-thiazol-2-yl]-amide] it was 115 nM; in that of `CC(C)(C)c1cc(NC(=O)[C@@H]2CCC(=O)N2c2ccc(OC(F)(F)F)cc2)on1` [(S)-5-Oxo-1-(4-trifluoromethoxy-phenyl)-pyrrolidine-2-carboxylic acid (3-tert-butyl-isoxazol-5-yl)-amide], 34.5 nM. Still for that read-out and setting: the result for `O=C(Nc1nc(-c2ccc(Cl)cc2)cs1)[C@@H]1C[C@@H](O)CN1CC1CCOCC1` [(2S,4R)-4-Hydroxy-1-(tetrahydro-pyran-4-ylmethyl)-pyrrolidine-2-carboxylic acid [4-(4-chloro-phenyl)-thiazol-2-yl]-amide] reads 71.2 nM. The same measure, in the same setting: the result for `O=C(Nc1ccc(F)c(C(F)(F)F)c1)[C@@H]1CCCN1c1ccc(Cl)cc1` [(S)-1-(4-Chloro-phenyl)-pyrrolidine-2-carboxylic acid (4-fluoro-3-trifluoromethyl-phenyl)-amide] reads 19.1 nM; that for `CC(C)(C)c1cc(NC(=O)[C@@H]2C[C@H](O)CN2c2ccc(C(F)(F)F)cn2)no1` [(2S,4S)-4-Hydroxy-1-(5-trifluoromethyl-pyridin-2-yl)-pyrrolidine-2-carboxylic acid (5-tert-butyl-isoxazol-3-yl)-amide], 27.9 nM; that for `CC(C)(C)c1cc(NC(=O)[C@@H]2CCC(=O)N2c2ccc(C(F)(F)F)cc2)sn1` [(S)-5-Oxo-1-(4-trifluoromethyl-phenyl)-pyrrolidine-2-carboxylic acid (3-tert-butyl-isothiazol-5-yl)-amide], 112 nM. `CCc1sc(NC(=O)[C@@H]2C[C@@H](O)CN2CC2CCOCC2)nc1-c1ccccc1` [(2S,4R)-4-Hydroxy-1-(tetrahydro-pyran-4-ylmethyl)-pyrrolidine-2-carboxylic acid (5-ethyl-4-phenyl-thiazol-2-yl)-amide]: the EC50 turned out to be 7.93 nM. `CC(C)(C)Cc1cc(NC(=O)[C@@H]2CCCN2C2CCCC2)on1` [(S)-1-Cyclopentyl-pyrrolidine-2-carboxylic acid [3-(2,2-dimethyl-propyl)-isoxazol-5-yl]-amide] yielded an EC50 of 113 nM.

The experiment is the same for the next values; noted with them: CHO cells expressing human CB2R; inhibition of forskolin-stimulated cAMP synthesis; mean; read-out: CB2 CAMP @ EC50 nM (mean).
With `CCC(C)c1cc(NC(=O)[C@@H]2CCC(=O)N2c2ccc(Cl)cc2)on1` (stereo partly drawn) [(S)-1-(4-Chloro-phenyl)-5-oxo-pyrrolidine-2-carboxylic acid (3-sec-butyl-isoxazol-5-yl)-amide], the EC50 turned out to be 104 nM. With `CC(C)(C)c1cc(NC(=O)[C@@H]2CCCN2c2ncccn2)on1` [(S)-1-Pyrimidin-2-yl-pyrrolidine-2-carboxylic acid (3-tert-butyl-isoxazol-5-yl)-amide], the EC50 was 109 nM.

For `Cc1nonc1CNC(=O)[C@@H]1CCCN1c1ccc(Cl)cc1` [(S)-1-(4-Chloro-phenyl)-pyrrolidine-2-carboxylic acid (4-methyl-furazan-3-ylmethyl)-amide], the EC50 was 498 nM. Regarding `CC(C)(C)c1cc(NC(=O)[C@@H]2CCC(=O)N2c2ccc(C#N)c(F)c2)on1` [(S)-1-(4-Cyano-3-fluoro-phenyl)-5-oxo-pyrrolidine-2-carboxylic acid (3-tert-butyl-isoxazol-5-yl)-amide], the EC50 amounted to 286 nM.

A word on the EC50: it is the concentration needed to bring the measured effect to its halfway point.

(Values after US8629157B2, “Pyrrolidine compounds which modulate the CB2 receptor” (Boehringer Ingelheim International GmbH, priority 2009, dated 2014).)
